Tests used:
Type in all cases: in vivo, Lewis rats
[1] = tested on: Rheumatoid factor (RF); assay: Serum RF analysis of CIA rats fed PA crude extracts (Embodiment 2)
Procedure: The animal test scheme is shown as FIG. 2. Bovine collagen Type II (Bovine C II) was dissolved in 0.1 M acetic acid solution, stirred to dissolve thoroughly, and formulated into solutions with concentrations of 1.5 and 3 mg/ml, which were stored in 4° C. for later use. For the first immune injection, 100 μl of C II solution was emulsified with an equal amount of CFA, and injected subcutaneously (200 μl/rat) in the root portions of tails of the rats after the emulsification was complete. […] After about 15 days, the second immunization was done. 100 μl of C II solution was emulsified with an equal amount of IFA, and injected subcutaneously (200 μl/rat) in the root portions of tails of the rats after the emulsification was complete. Approximately from Day 20, the symptoms of arthritis were observed (CIA rats), and PA and indomethacin were fed until Day 45. [table] 1. Collagen was formulated in a coating buffer to a concentration of 40 μg/ml, 0.1 ml of which was added into a 96-well micro plate respectively, and was kept in 4° C. overnight. 2. After washing with Tris buffer three times, 0.2 ml of blocking buffer containing 1% BSA was added into each well. The reaction lasted for 2 hours at room temperature, and then was washed by Tris buffer three times again. 3. […] Finally, absorption (O.D) value was read out at the wavelength of 450 nm.

[2] = tested on: C-reactive protein (CRP); assay: Serum C-reactive protein (CRP) analysis of CIA rats fed PA crude extracts (Embodiment 2)
Procedure: The animal test scheme is shown as FIG. 2. Bovine collagen Type II (Bovine C II) was dissolved in 0.1 M acetic acid solution, stirred to dissolve thoroughly, and formulated into solutions with concentrations of 1.5 and 3 mg/ml, which were stored in 4° C. for later use. For the first immune injection, 100 μl of C II solution was emulsified with an equal amount of CFA, and injected subcutaneously (200 μl/rat) in the root portions of tails of the rats after the emulsification was complete. […] After about 15 days, the second immunization was done. 100 μl of C II solution was emulsified with an equal amount of IFA, and injected subcutaneously (200 μl/rat) in the root portions of tails of the rats after the emulsification was complete. Approximately from Day 20, the symptoms of arthritis were observed (CIA rats), and PA and indomethacin were fed until Day 45. [table] 1. CRP ELISA kit was a pre-coated microplate, into which 0.1 ml of appropriately diluted serum sample could be added directly. After being reacted for 1 hour at room temperature, it was washed by the washing buffer four times. 2. Rabbit anti-rat C-reactive protein (CRP) was combined with HRP Ab, diluted with the washing buffer 100 times, and then 0.1 ml was added into each well. […] Finally, O.D value was read out at the wavelength of 450 nm. […]

[3] = tested on: TNF-α; assay: Abdominal cavity cell (PEC) culture, cytokine TNF-α, CIA rats fed PA crude extracts (Embodiment 2); details: LPS 10 μg/ml, 24 hours, FIG. 8
Procedure: The animal test scheme is shown as FIG. 2. Bovine collagen Type II (Bovine C II) was dissolved in 0.1 M acetic acid solution, stirred to dissolve thoroughly, and formulated into solutions with concentrations of 1.5 and 3 mg/ml, which were stored in 4° C. for later use. For the first immune injection, 100 μl of C II solution was emulsified with an equal amount of CFA, and injected subcutaneously (200 μl/rat) in the root portions of tails of the rats after the emulsification was complete. […] After about 15 days, the second immunization was done. 100 μl of C II solution was emulsified with an equal amount of IFA, and injected subcutaneously (200 μl/rat) in the root portions of tails of the rats after the emulsification was complete. Approximately from Day 20, the symptoms of arthritis were observed (CIA rats), and PA and indomethacin were fed until Day 45. [table] 1. After carbon dioxide euthanasia, the outer furs of the rat abdominal cavity were cut out by scissors, to expose the whole abdominal cavity. 2. HBSS buffer was injected into the abdominal cavity batch-wise by a 10 ml syringe to make a total volume of about 20 ml/rat. 3. The abdominal cavity of the rat was opened after the abdomen was gently kneaded. An incision of about 2 cm was made in the abdominal cavity by using scissors. […] The concentrations of cytokine TNF-α, IL-6, and IL-1β were analyzed by using ELISA kit.

Structure (SMILES): COc1ccc2c(c1)c(CC(=O)O)c(C)n2C(=O)c1ccc(Cl)cc1 [indomethacin, Indomethacin]
- reduction of serum RF value ([1]; Day 35 compared with Day 20, FIG. 6): 47%
- reduction of serum RF value ([1]; Day 45 compared with Day 20, FIG. 6): 51%
- effect on serum CRP concentration ([2]; Day 35, PA-H 375, PA-L 75, indomethacin 2.5 mg/kg/day, FIG. 7): efficiently inhibited
- effect on serum CRP concentration ([2]; Day 45, FIG. 7): same effects still exist
- inhibition of PEC secreting TNF-α [3]: no effect of inhibiting PEC from secreting inflammatory cytokine
